Source: PMC4420714 (Peptides, 2015)
Entries after “also recorded” stand apart in the source; their conditions may differ. Like-named read-outs stand apart in the source and are kept apart here.

Experiments:
PAC1-R [1] = biological target: T1, PAC1-R (Homo sapiens, UniProt P41586); experiment: Binding of 125I-PACAP27 to PAC1-R stably transfected NIH 3T3 cells
T1 sequence (P41586 21-468): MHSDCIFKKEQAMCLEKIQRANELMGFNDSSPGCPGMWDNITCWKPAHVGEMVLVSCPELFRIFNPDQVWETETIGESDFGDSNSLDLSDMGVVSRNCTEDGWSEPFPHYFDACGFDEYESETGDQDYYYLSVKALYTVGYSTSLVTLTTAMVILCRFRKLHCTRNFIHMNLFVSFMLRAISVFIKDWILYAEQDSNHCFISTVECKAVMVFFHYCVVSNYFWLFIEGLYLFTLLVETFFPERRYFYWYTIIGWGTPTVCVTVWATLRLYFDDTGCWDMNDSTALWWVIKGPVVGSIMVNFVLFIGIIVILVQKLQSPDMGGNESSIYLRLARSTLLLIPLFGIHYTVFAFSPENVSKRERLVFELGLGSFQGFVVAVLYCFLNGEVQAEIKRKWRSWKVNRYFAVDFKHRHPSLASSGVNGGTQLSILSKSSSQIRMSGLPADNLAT

VPAC1-R [2] = biological target: T2, VPAC1-R (Homo sapiens, UniProt P32241); experiment: Binding of 125I-VIP to VPAC1-R/PANC-1 cells; details: ratio of binding IC50, analog vs native parent peptide
T2 sequence (P32241 31-457): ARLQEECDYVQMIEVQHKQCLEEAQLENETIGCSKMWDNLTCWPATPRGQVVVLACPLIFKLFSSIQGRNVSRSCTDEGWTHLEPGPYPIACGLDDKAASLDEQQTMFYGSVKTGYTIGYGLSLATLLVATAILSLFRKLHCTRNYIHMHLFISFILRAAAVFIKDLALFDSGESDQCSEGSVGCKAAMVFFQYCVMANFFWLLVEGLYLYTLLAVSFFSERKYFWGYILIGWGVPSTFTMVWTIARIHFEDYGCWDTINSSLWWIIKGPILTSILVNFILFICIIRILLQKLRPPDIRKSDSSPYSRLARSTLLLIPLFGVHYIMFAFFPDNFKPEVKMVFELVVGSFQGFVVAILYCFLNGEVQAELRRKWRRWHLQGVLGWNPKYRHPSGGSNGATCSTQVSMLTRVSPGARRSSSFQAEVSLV

VPAC2-R [3] = biological target: T3, VPAC2-R (Homo sapiens, UniProt P41587); experiment: Binding of 125I-PACAP27 to VPAC2-R/PANC-1 cells; details: ratio of binding IC50, analog vs native parent peptide
T3 sequence (P41587 24-438): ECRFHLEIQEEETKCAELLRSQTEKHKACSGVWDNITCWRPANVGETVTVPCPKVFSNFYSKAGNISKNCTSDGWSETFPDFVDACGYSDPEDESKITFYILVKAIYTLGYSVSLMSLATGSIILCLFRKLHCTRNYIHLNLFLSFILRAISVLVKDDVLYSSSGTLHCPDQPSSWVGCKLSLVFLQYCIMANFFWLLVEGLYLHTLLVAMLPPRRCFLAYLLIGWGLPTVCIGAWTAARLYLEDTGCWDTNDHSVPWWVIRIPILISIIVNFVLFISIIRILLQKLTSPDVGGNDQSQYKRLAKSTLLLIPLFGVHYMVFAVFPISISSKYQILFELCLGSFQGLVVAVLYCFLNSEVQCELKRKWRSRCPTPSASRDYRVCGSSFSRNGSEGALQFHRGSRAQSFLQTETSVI

PAC1-R [4] = biological target: T1, PAC1-R; experiment: [3H]cAMP generation in PAC1-R cells; format: cell-based
VPAC1-R [5] = biological target: T2, VPAC1-R; experiment: [3H]cAMP generation in T47D cells; format: cell-based; details: for [3H]cAMP T47D % max (agonist class): relative to PACAP38, up to 1 µM
PAC1-R [6] = biological target: T1, PAC1-R; details: PAC1-R over VPAC1-R; ref [13]; cited from earlier work
VPAC1-R [7] = biological target: T2, VPAC1-R; experiment: [3H]cAMP generation in VPAC1-R/PANC-1 cells; format: cell-based
VPAC2-R [8] = biological target: T3, VPAC2-R; experiment: [3H]cAMP generation in VPAC2-R/PANC-1 cells; format: cell-based
PAC1-R [9] = biological target: T1, PAC1-R; experiment: [3H]Inositol phosphate generation; format: cell-based; details: PAC1-R cells, IP EC50/cAMP EC50

[D-Ser^2]PACAP27 [Peptide P4]
decrease in affinity for PAC1-R cells compared to native PACAP38 (or PACAP27) (PAC1-R [1]): 15–25 fold
lower affinity for PAC1-R cells than VPAC1-R/PANC-1 cells (PAC1-R [1]): 6–10 fold
lower affinity for PAC1-R cells than VPAC2-R/PANC-1 cells (PAC1-R [1]): 2–9 fold
decrease in affinity for VPAC1-R/PANC-1 cells compared to native PACAP38 (or PACAP27, VIP) (VPAC1-R [2]): 37 fold
decrease in affinity for VPAC2-R/PANC-1 cells compared to native PACAP38 (or PACAP27, VIP) (VPAC2-R [3]): 7 fold
higher potency for PAC1-R cells compared to VPAC1-R/PANC-1 cells (PAC1-R [4]): 2-to-5 fold
higher potency for PAC1-R cells compared to VPAC2-R/PANC-1 cells (PAC1-R [4]): 12–140 fold
[3H]cAMP T47D % max of partial agonist (VPAC1-R [5]; partial agonist maximum): pAg (90) % max
[3H]cAMP T47D % max (agonist class) (VPAC1-R [5]): pAg (90)
PAC1-selectivity reported in a previous study (PAC1-R [6]): 3 fold

PACAP38 [reference compound]
maximal increase in cAMP, PAC1-R cells (PAC1-R [4]): 4.1 ± 1.5 fold
coupling ratio (IC50-binding affinity/EC50-cAMP generation), VPAC1-R/PANC-1 cells (VPAC1-R [7]): 2.5 fold
maximal increase in cAMP, VPAC1-R/PANC-1 cells (VPAC1-R [7]): 5.0 ± 0.7 fold
maximal increase in cAMP, VPAC2-R/PANC-1 cells (VPAC2-R [8]; over control): 6.5 ± 2.0 fold
less potent at stimulating [3H]IP (PLC) than cAMP (PAC1-R [9]): 19 fold

[Pro^3]VIP [Peptide P50]
lower affinity for PAC1-R cells than VPAC1-R/PANC-1 cells (PAC1-R [1]; binding IC50 ratio, VPAC1-R preferring): 6–10 fold
decrease in affinity for VPAC1-R/PANC-1 cells compared to native PACAP38 (or PACAP27, VIP) (VPAC1-R [2]): > 500 fold
decrease in affinity for VPAC2-R/PANC-1 cells compared to native PACAP38 (or PACAP27, VIP) (VPAC2-R [3]): > 500 fold
[3H]cAMP PAC1-R % max (agonist class) (PAC1-R [4]; PAC1-R cells, relative to maximal stimulation by PACAP38, up to 1 µM): no agonist activity; also recorded: No Act
[3H]cAMP VPAC1-R/PANC-1 % max (agonist class) (VPAC1-R [7]; VPAC1-R/PANC-1 cells, relative to PACAP38, up to 1 µM): Ag (1 µM, 68)
[3H]cAMP T47D % max, agonist activity at 1 µM, still increasing (VPAC1-R [5]; at 1 µM): Ag (1 µM, 68) % max
[3H]cAMP T47D % max (agonist class) (VPAC1-R [5]): Ag (1 µM, 68)
[3H]cAMP VPAC2-R/PANC-1 % max (agonist class) (VPAC2-R [8]; VPAC2-R/PANC-1 cells, relative to PACAP38, up to 1 µM): Ag (1 µM, 52)
